Values after ≈ are worked out from the molar mass of the structure shown.

Type in all cases: in vivo
Data set [1] concerns 3rd-instar larvae of Agrotis ipsilon (Rottemberg). Briefly: Joint toxicity of I-72 + SYP-1620, fludioxonil, insect-dipping, Example 80, Table 80. Here is the method: (§1) Preparation of the pesticide solution: according to different test requirements, the test samples were accurately weighed respectively with an electronic analytical balance. The technical pesticides were dissolved in acetone, and then diluted with 0.1% Tween 80 water into a series of pesticide solutions with a certain concentration gradient according to the experimental design dosage.
(§2) The target insects were dipped into the pesticide solution for 10 s and then taken out. Excess pesticide solution was absorbed with filter paper. […] A treatment without the pesticide was set as the blank control.
(§3) The number of dead and live insects was investigated 72 hours later. The corrected mortality rate was calculated using the Abbott's formula, and statistical analysis was performed with the DPS data processing software to obtain the toxicity regression equation and LC50 value of each single test pesticide and each mixture of different ratios.

Data set [2] deals with Unaspis yanonensis Kuwana nymphs. The data set can be described thus: Joint toxicity of I-72 + afidopyropen, Example 76, Table 76. The following applies: A = compound I-72, B = afidopyropen; citrus leaf dipping; 120 hours. Here is the method: Test target: Unaspis yanonensis Kuwana nymphs.
as §1
Experimental method: the activity of the mixture against Unaspis yanonensis Kuwana nymphs on citrus was determined by adopting the dipping method. First, the collected citrus leaves with Unaspis yanonensis Kuwana nymphs were treated with the pesticide solution in the order from low dosage to high dosage according to the experimental design. After air-drying, the petioles were kept moist with degreased cotton, and then the leaves were placed in a Petri dish, with 3 replicates for each treatment. In addition, a blank control was set up.
The treated test materials were placed in an observation room, and the temperature, humidity and illumination of the observation room could be adjusted as needed. The number of dead and live insects was investigated 120 hours later. […] Then, the co-toxicity coefficient of each ratio was calculated using the Sun Y-P method to evaluate the mixing effect (the same as in Example 1).

Data set [3] deals with adult Tetranychus urticae Koch. The data set can be described thus: Joint toxicity of I-72 + cyetpyrafen, Example 85, Table 85. The following applies: A = compound I72, B = cyetpyrafen; potted-seedling spraying; 72 hours. How it is done: Test target: adult Tetranychus urticae Koch, a sensitive strain reared indoors.
as §1
(§4) Experimental method: the activity of the mixture against the adult Tetranychus urticae Koch was determined by adopting the potted-seedling spraying method. First, the adult Tetranychus urticae Koch of uniform size were transferred onto the leaves of kidney bean seedlings at the stage when the first pair of true leaves was fully expanded. After the adult mites had stabilized, the base number was counted. Then, the uniform spraying was performed with the pesticide solution in the order from low to high dose according to the experimental design, with 1.5 mL for each seedling and 3 replicates for each treatment. […]
The treated test materials were placed in an observation room, and the temperature, humidity and illumination of the observation room could be adjusted as needed. […] Then, the co-toxicity coefficient of each ratio was calculated using the Sun Y-P method to evaluate the mixing effect (the same as in Example 1).

Data set [4] deals with Aphis gossypii Glover nymphs. The data set can be described thus: Joint toxicity of I-72 + flonicamid, Example 74, Table 74. Conditions: A = compound I-72, B = flonicamid; cotton leaf spraying; 48 hours. Here is the method:
Test target: Aphis gossypii Glover nymphs, a sensitive strain reared indoors.
as §1
Experimental method: first, cotton leaves with uniform and consistent Aphis gossypii were selected, with about 30-40 insects on each leaf. Then, they were evenly sprayed with the pesticide solution in the order from low dosage to high dosage according to the experimental design, with 1.5 mL for each leaf and 3 replicates for each treatment. In addition, a blank control was set up.
(§5) The treated test materials were placed in an observation room, and the temperature, humidity and illumination of the observation room could be adjusted as needed. The number of dead and live insects was investigated 48 hours later. […] Then, the co-toxicity coefficient of each ratio was calculated using the Sun Y-P method to evaluate the mixing effect (the same as in Example 1).

The subject of data set [5] is Thrips flavus Schrank nymphs. Briefly: Joint toxicity of I-72 + flonicamid, Example 78, Table 78. The following applies: A = compound I-72, B = flonicamid; eggplant seedling spraying; 48 hours. How it is done: Test target: Thrips flavus Schrank nymphs.
as §1
Experimental method: first, eggplant seedlings with Thrips flavus Schrank were selected, and the base number was counted. Then, uniform spraying was performed with the pesticide solution in the order from low to high doses according to the experimental design, with 2 mL for each seedling and 3 replicates for each treatment. In addition, a blank control was set up.
as §5

The test system of data set [6] is 3rd-instar larvae of Agrotis ipsilon (Rottemberg). The data set can be described thus: whole plant or invertebrate. Conditions: A = compound I-72, B = metalaxyl-M; insect-dipping; 72 hours. How it is done: Test conditions: temperature: 24-26° C., humidity: RH 60%, and illumination: L:D=14:10
as §1, §2, §3

The test system of data set [7] is Myzus persicae (Sulzer) nymphs. The data set can be described thus: Joint toxicity of I-72 + pymetrozine, Example 73, Table 73. The following applies: in Brassica oleracea, 48 h. Here is the method: Test target: Myzus persicae (Sulzer) nymphs, a sensitive strain reared indoors.
as §1
Experimental method: first, cabbage leaves with uniform and consistent Myzus persicae (Sulzer) were selected, with about 30-40 insects on each leaf. Then, they were evenly sprayed with the pesticide solution in the order from low dosage to high dosage according to the experimental design, with 1.5 mL of the solution for each leaf and 3 replicates for each treatment. In addition, a blank control was set up.
The treated test materials were placed in an observation room, and the temperature, humidity and illumination of the observation room could be adjusted as needed. The number of dead and live insects was investigated 48 hours later. […] Then, the co-toxicity coefficient of each ratio was calculated using the Sun Y-P method to evaluate the mixing effect, as in Example 1.

Data set [8] deals with 3rd-instar larvae of Ostrinia furnacalis Guenee. Briefly: Joint toxicity of I-72 + pymetrozine, Example 79, Table 79. The following applies: in Zea mays, 72 h. Here is the method: Test target: 3rd-instar larvae of Ostrinia furnacalis Guenee.
as §1
Experimental method: first, tender corn stems were selected and dipped in the prepared pesticide solution for 10 s in the order from low dosage to high dosage according to the experimental design. After natural air-drying in the shade, they were placed in a 9-cm-diameter Petri dish with filter paper, and uniform and healthy test insects were introduced, with 10 insects for each treatment and 3 replicates for each treatment. In addition, a blank control was set up.
(§6) The treated test materials were placed in an observation room, and the temperature, humidity and illumination of the observation room could be adjusted as needed. The number of dead and live insects was investigated 72 hours later. […] Then, the co-toxicity coefficient of each ratio was calculated using the Sun Y-P method to evaluate the mixing effect (the same as in Example 1).

For data set [9], the system named is adult Bemisia tabaci (Gennadius). Briefly: Joint toxicity of I-72 + pyraclostrobin, cotton seedling spraying, Example 83, Table 83. The following applies: 72 h. How it is done: as §1
The corrected mortality rate was calculated using the Abbott's formula, and statistical analysis was performed with the DPS data processing software to obtain the toxicity regression equation and LC50 value of each single test pesticide and each mixture of different ratios.

For data set [10], the system named is adult Tetranychus cinnabarinus (Boisduval). Briefly: Joint toxicity of I-72 + pyridaben, Example 84, Table 84. Conditions: 72 h. Here is the method: Test target: adult Tetranychus cinnabarinus (Boisduval), a sensitive strain reared indoors.
as §1
as §4, with “adult Tetranychus cinnabarinus (Boisduval) was determined” for “adult Tetranychus urticae Koch was determined”, “adult Tetranychus cinnabarinus of uniform” for “adult Tetranychus urticae Koch of uniform”
The treated test materials were placed in an observation room, and the temperature, humidity and illumination of the observation room could be adjusted as needed. […] Then, the co-toxicity coefficient of each ratio was calculated using the Sun Y-P method to evaluate the mixing effect, as in Example 1.

Data set [11] concerns Bemisia tabaci (Gennadius) nymphs. The data set can be described thus: Joint toxicity of I-72 + pyrifluquinazon, Example 77, Table 77. Conditions: A = compound I-72, B = pyrifluquinazon; cotton leaf-disk spraying; 96 hours. Here is the method:
Test target: Bemisia tabaci (Gennadius) nymphs, a sensitive strain reared indoors.
as §1
Experimental method: first, cotton leaves with neat and consistent Bemisia tabaci (Gennadius) nymphs were selected and made into leaf disks, with about 20 insects on each leaf disk. Then, they were evenly sprayed with the pesticide solution in the order from low dosage to high dosage according to the experimental design, with 1.5 mL for each leaf and 3 replicates for each treatment. In addition, a blank control was set up.
The treated test materials were placed in an observation room, and the temperature, humidity and illumination of the observation room could be adjusted as needed. The number of dead and live insects was investigated 96 hours later. […] Then, the co-toxicity coefficient of each ratio was calculated using the Sun Y-P method to evaluate the mixing effect (the same as in Example 1).

The test system of data set [12] is Nilaparvata lugens (Stal) nymphs. The data set can be described thus: Joint toxicity of I-72 + triflumezopyrim, Example 75, Table 75. Conditions: A = compound I-72, B = triflumezopyrim; potted-seedling spraying; 72 hours. How it is done:
Test target: Nilaparvata lugens (Stal) nymphs, a sensitive strain reared indoors.
as §1
Experimental method: the activity of the mixture against the Nilaparvata lugens (Stal) nymphs was determined by adopting the potted-seedling spraying method. First, rice seedlings were planted in culture pots. Uniform spraying was performed with the pesticide solution in the order from low dosage to high dosage according to the experimental design, with 2 mL for each seedling. Then, Nilaparvata lugens nymphs of uniform size were transferred onto the rice seedlings, with 3 replicates for each treatment. In addition, a blank control was set up.
as §6

On to `CNC(=O)/C(=N/OC)c1ccccc1CO/N=C(C)/C=C/c1c(Cl)cccc1Cl` [SYP-1620], for which the median lethal concentration (LC50) (usually the concentration that kills 50% of the test population) in [1] (A = compound I-72, B = SYP-1620, 72 hours) amounted to 361.2037 µg/mL.

For the molecule `C[C@]1(COC(=O)C2CC2)[C@@H]2C[C@H](O)[C@@]3(C)Oc4cc(-c5cccnc5)oc(=O)c4[C@H](O)[C@@H]3[C@@]2(C)CC[C@@H]1OC(=O)C1CC1` [afidopyropen], in [2], the median lethal concentration (LC50) was 2.8361 µg/mL.

Take `CCn1nc(C)cc1/C(OC(=O)C(C)(C)C)=C(/C#N)c1ccc(C(C)(C)C)cc1` [cyetpyrafen]: the LC50 in [3] is 0.6118 µg/mL. Turning to `N#CCNC(=O)c1cnccc1C(F)(F)F` [flonicamid], the values for the LC50 in data set [4] and in data set [5] were 2.3954 µg/mL and 50.8013 µg/mL, respectively. Regarding `N#Cc1c[nH]cc1-c1cccc2c1OC(F)(F)O2` [fludioxonil], the LC50 in data set [1] (Agrotis ipsilon, A = compound I-72, B = fludioxonil, 72 hours, read-out: LC50) was determined as 391 µg/mL. For `COCC(=O)N(c1c(C)cccc1C)[C@H](C)C(=O)OC` [metalaxyl-M], the LC50 in data set [6] came to 401.2975 µg/mL (≈ 1440 µM). Regarding `CC1=NNC(=O)N(/N=C/c2cccnc2)C1` [pymetrozine], the 50% lethal concentration (LC50) in data set [7] was determined as 5.51 µg/mL; in data set [8], 300 µg/mL. As for `COC(=O)N(OC)c1ccccc1COc1ccn(-c2ccc(Cl)cc2)n1` [pyraclostrobin], the LC50 in data set [9] stood at 424 µg/mL. Consider `CC(C)(C)c1ccc(CSc2cnn(C(C)(C)C)c(=O)c2Cl)cc1` [pyridaben], for which the LC50 in data set [10] worked out at 10.8 µg/mL. Regarding `CC(=O)N1C(=O)N(NCc2cccnc2)Cc2cc(C(F)(C(F)(F)F)C(F)(F)F)ccc21` [pyrifluquinazon], in data set [11], the median lethal concentration (LC50) was determined as 10.6205 µg/mL.

Consider `O=c1c(-c2cccc(C(F)(F)F)c2)c([O-])[n+](Cc2cncnc2)c2ccccn12` [triflumezopyrim], for which the median lethal concentration (LC50) in data set [12] was determined as 0.8838 µg/mL.

(Values after US20260198495A1, “BINARY INSECTICIDE COMPOSITION AND USE THEREOF” (SHENYANG SINOCHEM AGROCHEMICALS R & D CO., LTD., priority 2022, published 2026).)
